From publication PMC6366404, “4-(3-Nitrophenyl)thiazol-2-ylhydrazone derivatives as antioxidants and selective hMAO-B inhibitors: synthesis, biological activity and computational analysis” (Journal of Enzyme Inhibition and Medicinal Chemistry, 2019) come the findings set out here.

Series [1] addresses T1, hMAO-A (Homo sapiens, UniProt P21397).
T1 sequence (P21397 1-527): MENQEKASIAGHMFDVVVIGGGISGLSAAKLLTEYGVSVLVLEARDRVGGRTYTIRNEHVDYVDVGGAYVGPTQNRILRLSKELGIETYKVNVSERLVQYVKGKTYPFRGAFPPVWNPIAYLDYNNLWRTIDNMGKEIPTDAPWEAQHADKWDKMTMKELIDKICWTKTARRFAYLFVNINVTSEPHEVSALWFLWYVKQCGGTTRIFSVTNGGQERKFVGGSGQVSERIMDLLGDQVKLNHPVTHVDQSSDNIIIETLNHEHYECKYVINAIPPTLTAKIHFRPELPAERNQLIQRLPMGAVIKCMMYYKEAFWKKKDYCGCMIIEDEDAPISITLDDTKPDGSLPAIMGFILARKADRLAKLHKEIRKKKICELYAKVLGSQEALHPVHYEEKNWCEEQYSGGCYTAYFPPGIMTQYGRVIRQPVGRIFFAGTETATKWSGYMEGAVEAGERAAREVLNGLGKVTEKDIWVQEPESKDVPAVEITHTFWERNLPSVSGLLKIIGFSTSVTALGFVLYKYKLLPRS
Description: hMAO-A inhibition, IC50 determination (kynuramine fluorescence). The format is biochemical. How it is done: (§1) The procedure for the measurement of IC50 values for the inhibition of MAO has been reported. The enzyme reactions were prepared to a volume of […] in potassium phosphate buffer at pH 7.4 (100 mM, made isotonic with KCl) and contained kynuramine (50 μM) and the test inhibitors (0.003–100 µM). Stock solutions of the test inhibitors were prepared in DMSO and added to the reactions to yield 4% DMSO. The enzyme reactions were initiated with the addition of recombinant hMAO-A (0.0075 mg protein/mL) or hMAO-B (0.015 mg protein/mL) and incubated for 20 min at 37 °C. At endpoint, the reactions were terminated with 80 µL sodium hydroxide (2N) and the fluorescence of 4-hydroxyquinoline, the oxidation product of kynuramine, was measured (λex = 310; λem = 400 nm)[33]. 4-Hydroxyquinoline was quantified with a calibration curve (0.047–1.56 μM) and the rate of 4-hydroxyquinoline formation was fitted to the one site competition model of the Prism 5 software package (GraphPad). From the resulting sigmoidal plots, the IC50 values were estimated. All enzyme reactions were carried out in triplicate and IC50 values are given as the mean ± standard deviation (SD).

The nature of series [2]: Phosphomolybdenum assay (PhosphoMo), total antioxidant activity. The conditions noted are these: concentration at which absorbance was 0.5. The procedure: The total antioxidant activity of the compounds was evaluated by phosphomolybdenum method according to Zengin et al.[35]. The sample solution (0.3 ml) was combined with 3 ml of reagent solution (0.6 M sulphuric acid, 28 mM sodium phosphate, and 4 mM ammonium molybdate) and the absorbance was recorded at 695 nm after 90 min incubation at 95 °C. The EC50, which is the effective concentration at which the absorbance was 0.5, was calculated for each compound and trolox, as a reference drug.

The nature of series [3]: ABTS radical cation scavenging activity. The procedure: (§2) The scavenging activity of the compounds on the ABTS radical cation [ABTS,2,2′-azino-bis(3-ethylbenzothiazoline)-6-sulphonic acid] was measured according to the method of Zengin et al.[37] with slight modification. Briefly, ABTS^+ was produced directly by reacting a 7 mM ABTS solution with 2.45 mM potassium persulphate and allowing the mixture to incubate for 12–16 h in the dark at room temperature. Prior to initiating the assay, the ABTS solution was diluted with methanol to an absorbance of 0.700 ± 0.02 at 734 nm. The sample solution (1 ml) was added to the ABTS^+ solution (2 ml) and mixed, and the sample absorbance was recorded at 734 nm after 30 min incubation at room temperature. The corresponding IC50 value, which is the effective concentration at which 50% of DPPH/ABTS radicals are scavenged, was calculated for each compound and trolox, as a reference drug.

Series [4] is described as follows: FRAP (ferric reducing antioxidant power) assay. How it is done: (§3) The FRAP (ferric reducing antioxidant power) assay was carried out as described by Zengin et al.[38]. The sample solution (0.1 ml) was added to the premixed FRAP reagent (2 ml) containing acetate buffer (0.3 M, pH 3.6), 2,4,6-tris(2-pyridyl)-s-triazine (10 mM) in 40 mM HCl, and ferric chloride (20 mM) in a ratio of 10/1/1 (v/v/v). The absorbance of the sample was subsequently recorded at 593 nm after 30 min incubation at room temperature. Both results were expressed as EC50 values, using trolox as a reference drug.

Series [5] is described as follows: DPPH radical scavenging activity. How it is done:
The radical scavenging effect of the compounds using the 1,1-diphenyl-2-picrylhydrazyl (DPPH) radical was estimated according to Zengin et al.[36]. The sample solution (1 ml) was added to 4 ml of a 0.004% solution of DPPH in methanol. The sample absorbance was recorded at 517 nm after 30 min incubation at room temperature in the dark.
as §2
A general note: DPPH is a stable violet radical that fades when it is reduced.

Series [6] is described as follows: Metal chelating activity on ferrous ions. The note with it: ferrozine. The procedure:
Metal chelating activity on ferrous ions was evaluated by the method previously described. Briefly, the sample solution (2 ml) was added to FeCl2 solution (0.05 ml, 2 mM). The reaction was initiated by the addition of 5 mM ferrozine (0.2 ml). Similarly, a blank was prepared by adding the sample solution (2 ml) to FeCl2 solution (0.05 ml, 2 mM) and water (0.2 ml) without ferrozine. Then, the sample and blank absorbance were recorded at 562 nm after incubation for 10 min at room temperature. The absorbance of the blank was subtracted from that of the sample. EDTA was used as a positive control and this property was expressed as IC50 value for each compound.

The nature of series [7]: Cupric ion reducing activity (CUPRAC). How it is done: The cupric ion reducing activity (CUPRAC) was determined according to the method of Zengin et al.[38]. The sample solution (0.5 ml) was added to a premixed reaction mixture containing CuCl2 (1 ml, 10 mM), neocuproine (1 ml, 7.5 mM), and NH4Ac buffer (1 ml, 1 M, pH 7.0). Similarly, a blank was prepared by adding the sample solution (0.5 ml) to a premixed reaction mixture (3 ml) without CuCl2. The absorbances of the sample and blank were subsequently recorded at 450 nm after 30 min incubation at room temperature. The absorbance of the blank was subtracted from that of the sample.
as §3

Series [8] has as its target T2, hMAO-B (Homo sapiens, UniProt P27338).
T2 sequence (P27338 1-520): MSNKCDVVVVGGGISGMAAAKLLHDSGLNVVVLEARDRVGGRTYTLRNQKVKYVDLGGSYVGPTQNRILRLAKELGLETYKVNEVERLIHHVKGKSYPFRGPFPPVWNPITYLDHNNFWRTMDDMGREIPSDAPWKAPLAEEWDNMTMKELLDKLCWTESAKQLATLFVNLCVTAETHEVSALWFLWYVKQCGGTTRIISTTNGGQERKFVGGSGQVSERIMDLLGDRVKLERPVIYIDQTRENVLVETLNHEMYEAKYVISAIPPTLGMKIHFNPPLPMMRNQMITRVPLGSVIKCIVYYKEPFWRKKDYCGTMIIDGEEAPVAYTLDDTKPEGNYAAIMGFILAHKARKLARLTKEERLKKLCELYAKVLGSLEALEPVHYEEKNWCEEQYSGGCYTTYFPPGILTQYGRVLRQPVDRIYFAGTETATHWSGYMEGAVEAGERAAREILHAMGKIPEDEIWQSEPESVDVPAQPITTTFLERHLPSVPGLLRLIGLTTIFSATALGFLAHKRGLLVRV
As to the kind of experiment: hMAO-B inhibition, IC50 determination (kynuramine fluorescence). The series is classed as biochemical. How it is done: as §1

Read-outs that look alike come from different tables or passages of the source.

What is called IC50 is the midpoint of a concentration-inhibition curve. What is called EC50 is the concentration needed to bring the measured effect to its halfway point. Turning to `O=[N+]([O-])c1cccc(-c2csc(NN=Cc3cccs3)n2)c1` [Compound 3, 1-(4-(3-Nitrophenyl)thiazol-2-yl)-2-(thiophen-2-ylmethylene)hydrazine], the concentration for half-maximal inhibition (IC50) in series [1] is 57.2 µM; in [3], 1050 ± 10 µM; in series [5] it was 1190 ± 10 µM; in [6] it was over 5000 µM. The figures for the EC50 in series [2], in series [4] and in [7] were 1840 ± 180 µM, 410 ± 20 µM and 590 ± 10 µM, respectively. The “Selectivity index (SI) for the MAO-B isoform” value in series [8] (ratio (IC50 hMAO-A)/(IC50 hMAO-B)) is given as 8412.
Broadly, the melting point is the temperature, or range, at which the solid turns liquid. In the case of `CC(=NNc1nc(-c2cccc([N+](=O)[O-])c2)cs1)c1ccc2ccc3ccccc3c2c1` [Compound 34, 1-(4-(3-Nitrophenyl)thiazol-2-yl)-2-(1-(phenanthren-3-yl)ethylidene)hydrazine], the melting point lay in the range of 255 to 257 °C. In series [1] (recombinant hMAO-A, kynuramine 50 μM, 20 min, 37 °C, read-out: IC50 hMAO-A), the 50% inhibitory concentration (IC50) came out at 101 µM. Further, the IC50 in series [8] (recombinant hMAO-B, kynuramine 50 μM, 20 min, 37 °C, read-out: IC50 hMAO-B) is 80.5 µM.
